Reference: publication PMC7311426, “An amphipathic peptide with antibiotic activity against multidrug-resistant Gram-negative bacteria” (Nature Communications, 2020)
≈ marks a conversion by molar mass, not a printed value. Like-named read-outs stand apart in the source and are kept apart here.

Experiments:
Experiment in all cases: microbe, parasite or virus in culture
[1] = test system: A. baumannii clinical isolates
Description: The in vitro activity of AA139 and comparator antimicrobials was determined in two panels of clinical isolates of E. coli, K. pneumoniae, P. aeruginosa, and A. baumannii (Supplementary Table 3), and MIC90 presented. The US panel consisted of 331 clinical isolates from 2010 to 2012. It was tested by BMD in accordance with the CLSI guidelines (M07-A9, 2012)[39]. […] AA139 was diluted in 0.01% acetic acid/0.1% bovine serum albumin. Sterile polypropylene culture cluster round-bottom 96-well plates (Costar # 3879) were used for testing. The worldwide panel consisted of 445 clinical isolates from 2011 to 2013, geographically divided into Asia, Europe, North America, and Rest of World (Middle East, Latin America, Africa, and South Pacific) with each region representing ~25% of the isolates. It was tested by broth microdilution in accordance with the CLSI guidelines (M07-A9, 2012)[39]. […] The test media was CAMHB (Becton Dickinson). AA139 and polymyxin B were tested in media supplemented with 0.002% Tween 80 (Calbiochem). MIC90 values were calculated for all or subsets of the isolates. MIC correlation between AA139 and colistin was analyzed with data from the US panel.

K. pneumoniae = details: Klebsiella pneumoniae
In short: (§1)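 Broth microdilution in MHB, 2-fold 12-point series from 128 or 64 down to 0.06 or 0.03 μg mL^−1, 5 × 10^5 CFU mL^−1. Extra runs in CAMHB per CLSI and in MHB with 1% agarose; n ≥ 6.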

P. aeruginosa = details: Pseudomonas aeruginosa
In short: as §1

[2] = A. baumannii, worldwide isolates 2011-2013, n = 108

In the case of `C[C@H]1COc2c(N3CCN(C)CC3)c(F)cc3c(=O)c(C(=O)O)cn1c23` [LEV, levofloxacin, reference compound], the MIC50 [1, 2] is reported as 16 µg/mL (≈ 44.3 µM), the MIC90 [1, 2] is reported as over 32 µg/mL and the “Number of isolates with MIC 0.03 (MIC frequency distribution)” value ([1]; A. baumannii, worldwide isolates 2011-2013, n = 108, count of isolates at MIC 0.03) is reported as 1. For the same compound, the “Number of isolates with MIC 0.06 (MIC frequency distribution)” value ([1]; A. baumannii, worldwide isolates 2011-2013, n = 108, count of isolates at MIC 0.06) was 4, the “Number of isolates with MIC 0.125 (MIC frequency distribution)” value ([1]; A. baumannii, worldwide isolates 2011-2013, n = 108, count of isolates at MIC 0.125) was 8 and the “Number of isolates with MIC 0.25 (MIC frequency distribution)” value ([1]; A. baumannii, worldwide isolates 2011-2013, n = 108, count of isolates at MIC 0.25) was 2. The “Number of isolates with MIC 0.5 (MIC frequency distribution)” value ([1]; A. baumannii, worldwide isolates 2011-2013, n = 108, count of isolates at MIC 0.5) was 3, the “Number of isolates with MIC 1 (MIC frequency distribution)” value ([1]; A. baumannii, worldwide isolates 2011-2013, n = 108, count of isolates at MIC 1) was 0 and the “Number of isolates with MIC 2 (MIC frequency distribution)” value ([1]; A. baumannii, worldwide isolates 2011-2013, n = 108, count of isolates at MIC 2) was 0. For the same compound, the “Number of isolates with MIC 4 (MIC frequency distribution)” value ([1]; A. baumannii, worldwide isolates 2011-2013, n = 108, count of isolates at MIC 4) was 6, the “Number of isolates with MIC 8 (MIC frequency distribution)” value ([1]; A. baumannii, worldwide isolates 2011-2013, n = 108, count of isolates at MIC 8) was 22 and the “Number of isolates with MIC 16 (MIC frequency distribution)” value ([1]; A. baumannii, worldwide isolates 2011-2013, n = 108, count of isolates at MIC 16) was 20. The “Number of isolates with MIC 32 (MIC frequency distribution)” value ([1]; A. baumannii, worldwide isolates 2011-2013, n = 108, count of isolates at MIC 32) was 19, the “Number of isolates with MIC 64 (MIC frequency distribution)” value ([1]; A. baumannii, worldwide isolates 2011-2013, n = 108, count of isolates at MIC 64) was 0 and the “Number of isolates with MIC 128 (MIC frequency distribution)” value ([1]; A. baumannii, worldwide isolates 2011-2013, n = 108, count of isolates at MIC 128) was 0. For the same compound, the “Number of isolates with MIC >16 (MIC frequency distribution)” value ([1]; A. baumannii, worldwide isolates 2011-2013, n = 108, count of isolates at MIC >16) was 0, the “Number of isolates with MIC >32 (MIC frequency distribution)” value ([1]; A. baumannii, worldwide isolates 2011-2013, n = 108, count of isolates at MIC >32) was 23 and the “Number of isolates with MIC >128 (MIC frequency distribution)” value ([1]; A. baumannii, worldwide isolates 2011-2013, n = 108, count of isolates at MIC >128) was 0. The “Number of isolates with MIC ≤0.015 (MIC frequency distribution)” value ([1]; A. baumannii, worldwide isolates 2011-2013, n = 108, count of isolates at MIC ≤0.015) was 0, the MIC90 ([1]; Acinetobacter baumannii) was over 32 µg/mL and the MIC (K. pneumoniae; read-out: MIC, broth microdilution, K. pneumoniae 3010 spontaneous mutant, AA139 selection 4X, plate 1, colony 1, drug-free passage 1) was 0.06 µg/mL (≈ 0.166 µM). The MIC (K. pneumoniae; read-out: MIC, broth microdilution, K. pneumoniae 3010 spontaneous mutant, AA139 selection 4X, plate 1, colony 1, drug-free passage 5) was 0.06 µg/mL (≈ 0.166 µM), the MIC (K. pneumoniae; read-out: MIC, broth microdilution, K. pneumoniae 3010 spontaneous mutant, AA139 selection 8X, plate 1, colony 1, drug-free passage 1) was 0.06 µg/mL (≈ 0.166 µM) and the MIC (K. pneumoniae; read-out: MIC, broth microdilution, K. pneumoniae 3010 spontaneous mutant, AA139 selection 8X, plate 1, colony 1, drug-free passage 5) was 0.06 µg/mL (≈ 0.166 µM). It also gave an MIC (P. aeruginosa; ATCC27853, read-out: MIC, broth microdilution, P. aeruginosa ATCC 27853 spontaneous mutant, AA139 selection 4X, plate 1, colony 2, drug-free passage 1) of 2 µg/mL (≈ 5.53 µM), an MIC (P. aeruginosa; ATCC27853, read-out: MIC, broth microdilution, P. aeruginosa ATCC 27853 spontaneous mutant, AA139 selection 4X, plate 1, colony 3, drug-free passage 5) of 2 µg/mL (≈ 5.53 µM) and an MIC (P. aeruginosa; ATCC27853, read-out: MIC, broth microdilution, P. aeruginosa ATCC 27853 spontaneous mutant, AA139 selection 4X, plate 1, colony 4, drug-free passage 1) of 2 µg/mL (≈ 5.53 µM). It also gave an MIC (P. aeruginosa; ATCC27853, read-out: MIC, broth microdilution, P. aeruginosa ATCC 27853 spontaneous mutant, AA139 selection 4X, plate 1, colony 5, drug-free passage 1) of 2 µg/mL (≈ 5.53 µM), an MIC (P. aeruginosa; ATCC27853, read-out: MIC, broth microdilution, P. aeruginosa ATCC 27853 spontaneous mutant, AA139 selection 4X, plate 1, colony 5, drug-free passage 5) of 2 µg/mL (≈ 5.53 µM) and an MIC (P. aeruginosa; ATCC27853, read-out: MIC, broth microdilution, P. aeruginosa ATCC 27853 spontaneous mutant, AA139 selection 4X, plate 1, colony 6, drug-free passage 1) of 2 µg/mL (≈ 5.53 µM). The MIC (P. aeruginosa; ATCC27853, read-out: MIC, broth microdilution, P. aeruginosa ATCC 27853 spontaneous mutant, AA139 selection 4X, plate 2, colony 1, drug-free passage 1) was 2 µg/mL (≈ 5.53 µM), the MIC (P. aeruginosa; ATCC27853, read-out: MIC, broth microdilution, P. aeruginosa ATCC 27853 spontaneous mutant, AA139 selection 4X, plate 2, colony 2, drug-free passage 1) was 2 µg/mL (≈ 5.53 µM) and the MIC (P. aeruginosa; ATCC27853, read-out: MIC, broth microdilution, P. aeruginosa ATCC 27853 spontaneous mutant, AA139 selection 8X, plate 1, colony 1, drug-free passage 5) was 2 µg/mL (≈ 5.53 µM). For the same compound, the MIC (P. aeruginosa; ATCC27853, read-out: MIC, broth microdilution, P. aeruginosa ATCC 27853 spontaneous mutant, AA139 selection 8X, plate 1, colony 2, drug-free passage 1) was 2 µg/mL (≈ 5.53 µM) and the MIC (P. aeruginosa; read-out: MIC, broth microdilution, P. aeruginosa UNT 138-1 spontaneous mutant, AA139 selection 4X, plate 1, colony 1, drug-free passage 1) was 2 µg/mL (≈ 5.53 µM).
